Tests used:
ENR+CD organoids = assay: Primary screen: ATP (CellTiter-Glo 3D, CTG) cell number/viability, 2.5-D 384-well ENR+CD organoids;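 also: compounds given at plating and again on day 3 over a 6-day differentiation from ENR+CV stem-cell-enriched precursors, ATP measured on day 6, plate median as control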
[1] = tested on: ENR+CD organoids (ISC to Paneth cell differentiation); assay: Primary screen: CCh-stimulated lysozyme secretion LYZ.S, 2.5-D 384-well ENR+CD organoid differentiation; type: cell-based, mouse; conditions: primary screen
Source text: (§1) High-throughput screening.

[2] = tested on: ENR+CD organoids (ISC to Paneth cell differentiation); assay: Primary screen: basal (non-stimulated) lysozyme secretion LYZ.NS, 2.5-D 384-well ENR+CD organoid differentiation; type: cell-based, mouse
Source text: as §1

[3] = primary screen, dose 0.08 uM, FC relative to plate median
[4] = primary screen, dose 0.40 uM, FC relative to plate median
[5] = primary screen, dose 2.00 uM, FC relative to plate median
[6] = dose 0.08 uM, FC relative to plate median
[7] = dose 0.40 uM, FC relative to plate median
[8] = dose 2.00 uM, FC relative to plate median
[9] = dose 10.00 uM, FC relative to plate median
[10] = primary screen, dose 0.08 uM, standard z score
[11] = primary screen, dose 0.40 uM, standard z score
[12] = primary screen, dose 2.00 uM, standard z score
[13] = primary screen, dose 10.00 uM, FC relative to plate median
[14] = primary screen, dose 10.00 uM, standard z score
[15] = primary screen, standard z score, dose 0.08 uM
[16] = primary screen, standard z score, dose 0.40 uM
[17] = primary screen, standard z score, dose 2.00 uM
[18] = primary screen, standard z score, dose 10.00 uM

`CNC(=O)c1cc(Oc2ccc(NC(=O)Nc3ccc(Cl)c(C(F)(F)F)c3)cc2)ccn1` [Sorafenib] gave a Dose.FC.CTG (ENR+CD organoids; [3]) of 0.032 log2 fold change, a Dose.FC.CTG (ENR+CD organoids; [4]) of 0.165 log2 fold change and a Dose.FC.CTG (ENR+CD organoids; [5]) of −0.206 log2 fold change. It also gave a Dose.FC.LYZ.S [1, 6] of 0.124 log2 fold change, a Dose.FC.LYZ.S [1, 7] of 0.164 log2 fold change and a Dose.FC.LYZ.S [1, 8] of 0.014 log2 fold change. The Dose.FC.LYZ.S [1, 9] was −0.062 log2 fold change, the Dose.FC.LYZ.NS [2, 3] was 0.052 log2 fold change and the Z.LYZ.NS [2, 10] was 0.457. It also gave a Dose.FC.LYZ.NS [2, 4] of 0.060 log2 fold change, a Z.LYZ.NS [2, 11] of 0.520 and a Dose.FC.LYZ.NS [2, 5] of 0.095 log2 fold change. It also gave a Z.LYZ.NS [2, 12] of 0.830, a Dose.FC.LYZ.NS [2, 13] of −0.021 log2 fold change and a Z.LYZ.NS [2, 14] of −0.180.
With `CC(C)[C@H](O)C(=O)N[C@@H](C)C(=O)N[C@@H]1C(=O)N(C)CCc2ccccc21` [Semagacestat (LY450139)] the Dose.FC.CTG (ENR+CD organoids; [3]) was 0.141 log2 fold change, the Z.CTG (ENR+CD organoids; [10]) was 0.338 and the Dose.FC.CTG (ENR+CD organoids; [4]) was −0.207 log2 fold change. It also gave a Z.CTG (ENR+CD organoids; [11]) of −0.494, a Dose.FC.CTG (ENR+CD organoids; [5]) of −0.128 log2 fold change and a Z.CTG (ENR+CD organoids; [12]) of −0.306. For the same molecule, the Dose.FC.CTG (ENR+CD organoids; [13]) was −0.856 log2 fold change, the Z.CTG (ENR+CD organoids; [14]) was −2.045 and the Dose.FC.LYZ.S [1, 6] was −0.014 log2 fold change. For the same molecule, the Dose.FC.LYZ.S [1, 7] was −0.006 log2 fold change, the Dose.FC.LYZ.S [1, 8] was −0.081 log2 fold change and the Dose.FC.LYZ.S [1, 9] was −0.162 log2 fold change. The Dose.FC.LYZ.NS [2, 3] was 0.017 log2 fold change, the Z.LYZ.NS [2, 10] was 0.151 and the Dose.FC.LYZ.NS [2, 4] was −0.021 log2 fold change. For the same molecule, the Z.LYZ.NS [2, 11] was −0.181, the Dose.FC.LYZ.NS [2, 5] was −0.081 log2 fold change and the Z.LYZ.NS [2, 12] was −0.704. It also gave a Dose.FC.LYZ.NS [2, 13] of −0.108 log2 fold change and a Z.LYZ.NS [2, 14] of −0.942.
Molecule `CNC(=O)c1ccc(N2C(=S)N(c3ccc(C#N)c(C(F)(F)F)c3)C(=O)C2(C)C)cc1F` [Enzalutamide (MDV3100)] has a Dose.FC.CTG (ENR+CD organoids; primary screen, dose 0.08 uM) of 0.195 log2 fold change, a Dose.FC.CTG (ENR+CD organoids; primary screen, dose 0.40 uM) of 0.256 log2 fold change and a Dose.FC.CTG (ENR+CD organoids; primary screen, dose 2.00 uM) of 0.076 log2 fold change. For the same molecule, the Dose.FC.CTG (ENR+CD organoids; primary screen, dose 10.00 uM) was 0.146 log2 fold change, the Z.CTG (ENR+CD organoids; [15]) was 0.465 and the Z.CTG (ENR+CD organoids; [16]) was 0.611. It also gave a Z.CTG (ENR+CD organoids; [17]) of 0.181, a Z.CTG (ENR+CD organoids; [18]) of 0.348 and a Dose.FC.LYZ.S ([1]; dose 0.08 uM) of 0.176 log2 fold change. For the same molecule, the Dose.FC.LYZ.S ([1]; dose 0.40 uM) was 0.276 log2 fold change, the Dose.FC.LYZ.S ([1]; dose 2.00 uM) was 0.077 log2 fold change and the Dose.FC.LYZ.S ([1]; dose 10.00 uM) was 0.076 log2 fold change. For the same molecule, the Dose.FC.LYZ.NS ([2]; primary screen, dose 0.08 uM) was 0.162 log2 fold change, the Dose.FC.LYZ.NS ([2]; primary screen, dose 0.40 uM) was 0.166 log2 fold change and the Dose.FC.LYZ.NS ([2]; primary screen, dose 2.00 uM) was 0.024 log2 fold change. It also gave a Dose.FC.LYZ.NS ([2]; primary screen, dose 10.00 uM) of 0.094 log2 fold change, a Z.LYZ.NS [2, 15] of 1.411 and a Z.LYZ.NS [2, 16] of 1.446. The Z.LYZ.NS [2, 17] was 0.210 and the Z.LYZ.NS [2, 18] was 0.820.
In the case of `Cl.O=C(O)Cc1cccc(OCCCN(Cc2cccc(C(F)(F)F)c2Cl)CC(c2ccccc2)c2ccccc2)c1` [GW3965 HCl], the “Dose.FC.CTG (log2 fold change)” value (ENR+CD organoids; primary screen, dose 0.08 uM) was 0.138, the “Z.CTG (standard z score)” value (ENR+CD organoids; primary screen, dose 0.08 uM) was 0.330 and the “Dose.FC.CTG (log2 fold change)” value (ENR+CD organoids; primary screen, dose 0.40 uM) was 0.201. For the same molecule, the “Z.CTG (standard z score)” value (ENR+CD organoids; primary screen, dose 0.40 uM) was 0.481, the “Dose.FC.CTG (log2 fold change)” value (ENR+CD organoids; primary screen, dose 2.00 uM) was 0.229 and the “Z.CTG (standard z score)” value (ENR+CD organoids; primary screen, dose 2.00 uM) was 0.546. The “Dose.FC.CTG (log2 fold change)” value (ENR+CD organoids; primary screen, dose 10.00 uM) was −0.078, the “Z.CTG (standard z score)” value (ENR+CD organoids; primary screen, dose 10.00 uM) was −0.186 and the “Dose.FC.LYZ.S (log2 fold change)” value ([1]; dose 0.08 uM) was 0.091. The “Dose.FC.LYZ.S (log2 fold change)” value ([1]; dose 0.40 uM) was 0.074, the “Dose.FC.LYZ.S (log2 fold change)” value ([1]; dose 2.00 uM) was 0.179 and the “Dose.FC.LYZ.S (log2 fold change)” value ([1]; dose 10.00 uM) was −0.047. For the same molecule, the “Dose.FC.LYZ.NS (log2 fold change)” value ([2]; primary screen, dose 0.08 uM) was 0.059, the “Z.LYZ.NS (standard z score)” value ([2]; primary screen, dose 0.08 uM) was 0.516 and the “Dose.FC.LYZ.NS (log2 fold change)” value ([2]; primary screen, dose 0.40 uM) was 0.002. The “Z.LYZ.NS (standard z score)” value ([2]; primary screen, dose 0.40 uM) was 0.013, the “Dose.FC.LYZ.NS (log2 fold change)” value ([2]; primary screen, dose 2.00 uM) was 0.077 and the “Z.LYZ.NS (standard z score)” value ([2]; primary screen, dose 2.00 uM) was 0.673. The “Dose.FC.LYZ.NS (log2 fold change)” value ([2]; primary screen, dose 10.00 uM) was −0.009 and the “Z.LYZ.NS (standard z score)” value ([2]; primary screen, dose 10.00 uM) was −0.080.
`CO[C@H]1C[C@@H]2CC[C@@H](C)[C@@](O)(O2)C(=O)C(=O)N2CCCC[C@H]2C(=O)O[C@H]([C@H](C)C[C@@H]2CC[C@@H](OCCO)[C@H](OC)C2)CC(=O)[C@H](C)/C=C(\C)[C@@H](O)[C@@H](OC)C(=O)[C@H](C)C[C@H](C)/C=C/C=C/C=C/1C` [Everolimus (RAD001)] gave a Dose.FC.CTG (ENR+CD organoids; primary screen, dose 0.08 uM) of 0.392 log2 fold change, a Dose.FC.CTG (ENR+CD organoids; primary screen, dose 0.40 uM) of 0.127 log2 fold change and a Dose.FC.CTG (ENR+CD organoids; primary screen, dose 2.00 uM) of 0.132 log2 fold change. It also gave a Dose.FC.CTG (ENR+CD organoids; primary screen, dose 10.00 uM) of −0.111 log2 fold change, a Z.CTG (ENR+CD organoids; [15]) of 0.936 and a Z.CTG (ENR+CD organoids; [16]) of 0.304. For the same molecule, the Z.CTG (ENR+CD organoids; [17]) was 0.314, the Z.CTG (ENR+CD organoids; [18]) was −0.266 and the Dose.FC.LYZ.S ([1]; dose 0.08 uM) was −0.012 log2 fold change. The Dose.FC.LYZ.S ([1]; dose 0.40 uM) was −0.007 log2 fold change, the Dose.FC.LYZ.S ([1]; dose 2.00 uM) was −0.039 log2 fold change and the Dose.FC.LYZ.S ([1]; dose 10.00 uM) was −0.096 log2 fold change. The Dose.FC.LYZ.NS ([2]; primary screen, dose 0.08 uM) was 0.068 log2 fold change, the Dose.FC.LYZ.NS ([2]; primary screen, dose 0.40 uM) was 0.110 log2 fold change and the Dose.FC.LYZ.NS ([2]; primary screen, dose 2.00 uM) was −0.003 log2 fold change. For the same molecule, the Dose.FC.LYZ.NS ([2]; primary screen, dose 10.00 uM) was −0.024 log2 fold change, the Z.LYZ.NS [2, 15] was 0.590 and the Z.LYZ.NS [2, 16] was 0.956. For the same molecule, the Z.LYZ.NS [2, 17] was −0.030 and the Z.LYZ.NS [2, 18] was −0.210.

Reference: patent US20220323406A1, “METHODS AND COMPOSITIONS FOR DIFFERENTIATING STEM CELLS” (Massachusetts Institute of Technology, priority 2019, published 2022)
